# Columns and labels:
# [1] = target: T1, binding of PAI-1 to vitronectin in PAI-1-depleted extracellular matrix of endothelial cells (Homo sapiens, UniProt P04004); assay: Binding of PAI-1 to endothelial cell matrix; conditions: 2 μg/ml PAI-1; competitors each 500 nM; 10 μM ZnCl2 (FIG. 1)
# T1 construct: The extracellular matrix of human umbilical vein endothelial cells was prepared according to standard procedures; endogenous in cells; host or cells: extracellular matrix of human umbilical vein endothelial cells, glycine-treated
# T1 sequence (P04004 20-478): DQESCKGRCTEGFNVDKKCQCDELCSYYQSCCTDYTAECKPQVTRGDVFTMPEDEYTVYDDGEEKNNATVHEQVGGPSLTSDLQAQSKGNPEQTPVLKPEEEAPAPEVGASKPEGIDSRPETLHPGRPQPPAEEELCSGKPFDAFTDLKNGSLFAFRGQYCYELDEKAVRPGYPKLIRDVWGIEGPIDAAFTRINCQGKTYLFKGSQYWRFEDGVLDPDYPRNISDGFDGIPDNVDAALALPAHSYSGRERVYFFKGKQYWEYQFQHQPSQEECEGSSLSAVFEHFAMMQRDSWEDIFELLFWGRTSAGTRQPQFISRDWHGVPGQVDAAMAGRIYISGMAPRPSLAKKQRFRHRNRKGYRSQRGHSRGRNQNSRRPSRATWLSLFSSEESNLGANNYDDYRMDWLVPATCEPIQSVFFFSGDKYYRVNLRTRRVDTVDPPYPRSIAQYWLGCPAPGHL
# Protocol: The extracellular matrix of human umbilical vein endothelial cells was prepared according to standard procedures. PAI-1-depleted extracellular matrix was obtained by subsequent incubation with glycine (0.1 M, pH 2.3) for 2 h at 25° C. Wells were washed and blocked with phosphate buffered saline containing 3% (wt/vol) bovine serum albumin before proceeding with binding assays. Binding of PAI-1 (2 μg/ml) to the extracellular matrix was performed in a final volume of 50 μl Tris-buffered saline containing 0.1% Tween-20, 0.3% (wt/vol) bovine serum albumin for 2 h at 22° C. in the absence or presence of […] and different kininogen forms. Following the incubation period and a washing step, bound PAI-1 was quantitated by anti-human PAI-1 monoclonal antibody 12A4, followed by addition of 1:1000 diluted peroxidase-conjugated goat anti-mouse immunoglobulins. The conversion of the substrate 2,2,-azino-di(3-ethyl) benz-thiazoline sulphate was monitored at 405 nm in a Thermomax microtiter plate reader. […]
# FIG. 1 The binding of 2 μg/ml PAI-1 to PAI-1-depleted (2 h glycine preincubation) extracellular matrix of cultured endothelial cells was tested in the absence (−)or presence of HK, HKa, GST-domain 5 (D5), the peptides HK483 and HK486 (each 500 nM) in a buffer containing 10 μM ZnCl2. Specific binding of PAI-1 is presented as absorbance at 405 nm.
# [2] = system: PAI-1; assay: Urokinase-mediated clot lysis in the presence of PAI-1; format: biochemical; conditions: not shown
# [3] = target: T2, platelet αIIbβ3-integrin with vitronectin (Homo sapiens, UniProt P04004); assay: Binding of vitronectin to αIIbβ3-integrin; conditions: vitronectin 2 μg/ml, immobilized αIIbβ3-integrin 5 μg/ml, 10 μM ZnCl2 (FIG. 3)
# T2 sequence (P04004 20-478): T1 sequence (P04004 20-478)
# Protocol: Microtiter plates were coated with 5 μg/ml αIIbβ3-integrin in Tris-buffered saline, pH 7.4, containing 1 mM CaCl2, 1 mM MgCl2 overnight at 4° C. and then blocked with 3% (w/v) bovine serum albumin. Binding of multimeric vitronectin (2 μg/ml) was performed in a final volume of 50 μl Tris-buffered saline containing 0.1% Tween-20, 0.3% (w/v) bovine serum albumin, 1 mM CaCl2 and 1 mM MgCl2 for 2 h at 22° C. in the absence or presence of 10 μM ZnCl2 and different kininogen forms. After the incubation period, monoclonal anti-vitronectin antibody VN7 at a concentration of 125 ng/ml was added, followed by addition of 1:1000 diluted peroxidase-conjugated goat anti-mouse immunoglobulins, respectively. Binding was quantitated as described above.
# FIG. 3 The binding of vitronectin (2 μg/ml) to immobilized αIIbβ3-integrin (5 μg/ml) in the absence or presence of increasing concentrations of PAI-1 (filled squares), HKa (filled circles) or GST-domain 5 (open circles) in a buffer containing 10 μM ZnCl2 was carried out. Specific binding is presented as absorbance at 405 nm.
# [4] = system: platelets; assay: Platelet adhesion onto vitronectin-coated plates; format: cell-based; conditions: competitors each 250 nM (FIG. 4)
# Protocol: Multiwell plates were coated with 5 μg/ml multimeric vitronectin (dissolved in bicarbonate buffer, pH 9.6) and blocked with 3% (wt/vol) bovine serum albumin for 16 h at 4° C. Platelets stained with calcein acetoxymethyl ester (calcein-AM, 2.5 μM) (15 min at 37° C. in the dark) at a density of 5×10^6 cells suspended in 50 μl HEPES-Tyrode buffer containing 4 mM MgCl2 were added together with the respective competitors and incubated for 30 min at 37° C. After three washes with phosphate buffered saline, bound platelets were lysed with 100 μl of lysis buffer (150 mM NaCl, 10 mM Tris-CH1, pH 7.5, 5 mM EDTA, 1% (wt/vol) NP-40, 1 mM phenyl-methylsulfonyl fluoride, 20 μg/ml soybean trypsin inhibitor) and quantified in a fluorescent plate reader (excitation filter 492 nm, emission filter 535 nm).
# FIG. 4. The adhesion of platelets to vitronectin in the absence (−) or presence of HK, HKa, GST-domain 5(D5), or the peptides HK483 and HK486 (each 250 nM) was carried out. Cell adhesion is presented as % of control.
# [5] = system: platelet-rich plasma; assay: Aggregation of platelet-rich plasma; format: cell-based; conditions: Adenosin-diphosphate (5 μM)-induced; competitors each 1000 nM (FIG. 5)
# Protocol: Platelet-rich plasma from fresh whole blood in sodium citrate was prepared by centrifugation of anticoagulated whole blood at 150 g for 20 min. After incubation of 0.45 ml of platelet rich plasma with different kininogen forms as indicated in the figure legends, and addition of 5 μl of […] at a final concentration of 5 μM, platelet aggregation was induced. Aggregation was quantitated by following the change in light transmission in a standardized aggregometer.
# FIG. 5 Adenosin-diphosphate (5 μM)-induced aggregation of platelet-rich plasma was performed in the absence (−) or presence of GST-domain 5 (D5), or the peptides HK483 and HK486 (each 1000 nM). Platelet aggregation is presented as % of control.
substance,measurement,setting,value
"Gly-486-Lys-502 (GKHKNKGKKNGKHNGWK; UniProt P01042 504-520, looked up, fragment) [HK486, peptide derived from the carboxy-terminus of the domain 5 of HK]",binding of PAI-1 to vitronectin in PAI-1-depleted (glycine-treated) extracellular matrix of endothelial cells,[1],inhibited
same,"urokinase-mediated clot lysis, which is inhibited in the presence of PAI-1",[2],enhance
same,interaction of platelet αIIbβ3-integrin with vitronectin,[3],block
same,αIIbβ3-integrin-mediated platelet adhesion to vitronectin,[4],block
same,aggregation of platelet-rich plasma,[5],inhibit

# From patent publication US20050058636A1, “Medicament against thrombotic diseases” (priority 2002, published 2005)
